Experimental data from patent publication US20240174663A1, “PYRIMIDINE OR PYRIDINE DERIVATIVES USEFUL AS HCN2 MODULATORS” (King's College London, priority 2021, published 2024).
Where a name gives a salt, the structure may show the parent alone.

Columns and labels:
WT Black6 strain mice = assay: Mouse neuropathic pain model (partial sciatic nerve ligation), von Frey filament; type: in vivo
Description: The model used was analogous to the model described in Seltzer Z, Dubner […] novel behavioural model of neuropathic pain disorders produced in rats by partial sciatic nerve injury, Pain 43: 205-218). […] Sci Transl Med 9: eaam6072. […] The mechanical pain threshold was measured by manual von Frey filament applied to the hind paw on the operated side, using the “up-down” method.

HCN4 = biological target: T1, HCN4 (Homo sapiens, UniProt Q9Y3Q4); assay: HCN4 assay using PatchXpress 7000A (PX protocol, Example 25); type: cell-based; settings: room temperature
T1 sequence (Q9Y3Q4 1-1203): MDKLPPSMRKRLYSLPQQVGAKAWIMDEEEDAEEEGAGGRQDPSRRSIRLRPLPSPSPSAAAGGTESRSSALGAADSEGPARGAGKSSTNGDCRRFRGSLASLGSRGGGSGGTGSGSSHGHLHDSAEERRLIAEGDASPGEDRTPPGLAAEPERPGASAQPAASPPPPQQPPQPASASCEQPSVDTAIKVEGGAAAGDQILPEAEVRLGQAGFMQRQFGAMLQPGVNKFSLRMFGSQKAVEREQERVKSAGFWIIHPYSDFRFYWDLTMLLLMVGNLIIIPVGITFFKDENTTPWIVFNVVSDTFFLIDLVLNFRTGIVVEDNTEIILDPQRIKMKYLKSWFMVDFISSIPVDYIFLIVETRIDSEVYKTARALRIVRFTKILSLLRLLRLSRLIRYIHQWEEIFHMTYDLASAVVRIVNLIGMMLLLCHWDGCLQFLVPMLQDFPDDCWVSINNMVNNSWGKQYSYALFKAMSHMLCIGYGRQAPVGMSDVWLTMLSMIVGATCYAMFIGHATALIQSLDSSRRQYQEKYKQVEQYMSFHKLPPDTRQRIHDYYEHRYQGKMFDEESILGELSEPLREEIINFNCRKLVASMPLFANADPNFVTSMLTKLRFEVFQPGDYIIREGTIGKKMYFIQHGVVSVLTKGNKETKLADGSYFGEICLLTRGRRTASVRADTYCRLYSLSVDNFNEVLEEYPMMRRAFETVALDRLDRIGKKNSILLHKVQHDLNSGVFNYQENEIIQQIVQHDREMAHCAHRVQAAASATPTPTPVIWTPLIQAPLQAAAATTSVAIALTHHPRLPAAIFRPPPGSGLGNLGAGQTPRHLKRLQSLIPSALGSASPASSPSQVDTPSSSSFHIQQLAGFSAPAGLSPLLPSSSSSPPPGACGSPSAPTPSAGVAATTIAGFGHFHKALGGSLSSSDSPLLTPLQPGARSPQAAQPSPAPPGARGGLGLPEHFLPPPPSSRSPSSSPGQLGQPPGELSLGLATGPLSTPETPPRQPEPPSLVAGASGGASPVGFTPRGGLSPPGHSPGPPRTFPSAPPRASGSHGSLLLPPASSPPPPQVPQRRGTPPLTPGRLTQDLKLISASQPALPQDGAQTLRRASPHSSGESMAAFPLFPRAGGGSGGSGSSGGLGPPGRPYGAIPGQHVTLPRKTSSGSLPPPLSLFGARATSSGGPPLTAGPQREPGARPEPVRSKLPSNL
Description: Example 25: Assay for HCN1 HCN2 and HCN4 Using PatchXpress 7000A
Solutions for recording HCN currents were:
The peak inward current measured at the end of the pulse to −110 mV (HCN1 and HCN2) or −130 mV (HCN4) was measured and any leak current subtracted to calculate the HCN current. The HCN current amplitude was measured after each control or compound addition and normalized to the control amplitude (Control A).
All experiments were performed at room temperature (approximately 22° C.).
Each test compound concentration was applied to the cell for seven (7) minutes, at which point the next cumulative concentration was applied.

[1] = tested on: mouse models of neuropathic pain; settings: nerve injury, cancer chemotherapy and diabetic neuropathy models; cited from earlier work
[2] = tested on: guinea pigs with noise-exposure induced tinnitus; assay: Noise-exposure tinnitus model, GPIAS test; type: in vivo, guinea pig
Description: (§1) Tinnitus in guinea pigs was monitored using the gap induced inhibition of the acoustic startle (GPIAS) test (see FIG. 4). GPIAS is reduced when tinnitus was present; see Berger, J. I. et al. Effects of the cannabinoid CB1 agonist ACEA on salicylate ototoxicity, hyperacusis and tinnitus in guinea pigs. Hearing research, (2017), and Coomber, B. et al. Neural changes accompanying tinnitus following unilateral acoustic trauma in the guinea pig. Eur J Neurosci 40, 2427-2441, (2014).
The noise-exposure model is more clinically relevant than the salicylate model, as it parallels a common cause of tinnitus in humans. A second important point is that it is long-term, while tinnitus induced by salicylate is rapidly reversed following salicylate exposure.
GPIAS returns following drug wash-out (see bar D in FIG. 6).

[3] = tested on: mouse model of diabetic neuropathy; settings: in vivo; cited from earlier work
[4] = tested on: mice (hearing thresholds); type: in vivo; settings: adult mice, tone pulses 3 kHz to 42 kHz; 20 mg/kg ip
[5] = tested on: guinea pigs with salicylate-induced tinnitus; assay: Short-term (salicylate) tinnitus model, gap induced inhibition of the acoustic startle (GPIAS) test; type: in vivo, guinea pig; settings: 5 mg/kg s.c.; salicylate 350 mg/kg i.p., 2 h
Description: as §1
In FIG. 4, sound stimulus (above) and corresponding pinna reflex (below) are shown in freely moving guinea pigs. Stimuli with no gap and gap are presented in a randomised order. Traces contaminated by movement (the upper trace in “no gap”) were removed before analysis.
Tinnitus was induced within 1-2 hours in humans by high doses of salicylate. A similar short-term tinnitus model was implemented in guinea pigs by i.p. injection of salicylate. In all animals, salicylate caused behavioural inhibition of GPIAS (see bar 2 in FIG. 5).
Salicylate (350 mg/kg, i.p.) impairs behavioural gap detection 2 h after salicylate administration (see bar 2 in of FIG. 5). Gap detection was restored by blocking HCN channels with ivabradine (5 mg/kg, s.c.).

[6] = Evaluation of CNS penetration: ivabradine in plasma, brain and auditory nerve; type: in vivo; settings: guinea pig, brain (somatosensory cortex) / plasma, other: injection; 30 min after injection; read-out: amount detected in brain, % of plasma level
Description: Ratios of total concentrations in preliminary experiments for plasma:brain:auditory nerve were 1:0.12:0.57 (n=2). The small amount (12% of plasma level) detected in brain is largely accounted for by the presence of ivabradine within the vascular supply of the brain. […] Pain 155, 1708-1719, (2014).

## Cc1ccc(C#N)nc1C[C@H](N)c1ncccc1-c1noc2ccccc12 [Example 4, (S)-6-{2-Amino-2-[3-(benzo[d]isoxazol-3-yl)pyridine-2-yl]ethyl}-5-methylpyridin-2-carbonitrile hydrochloride]
WT Black6 strain mice; 1 mg/kg i.p., day 5 after partial sciatic nerve ligation, operated hind paw
  mechanical analgesic effect (mechanical pain threshold, von Frey): full analgesia
WT Black6 strain mice; i.p., mice after partial sciatic nerve ligation
  hyperalgesia in contralateral (unoperated) hind paw: No hyperalgesia observed
HCN4
  IC50: 5.2 µM

## COc1cc2c(cc1OC)CC(=O)N(CCCN(C)C[C@H]1Cc3cc(OC)c(OC)cc31)CC2 [ivabradine]
[1]
  analgesia in mouse models of neuropathic pain: effective analgesic
[2]; 5 mg/kg s.c., unilateral noise exposure 110 dB, 1 h, 8 weeks prior
  reduced GPIAS following noise exposure: rapidly and completely reversed
[2]; control experiments, n=3
  effect on GPIAS in noise-exposed guinea pigs showing no behavioural evidence of tinnitus: without effect
[3]
  analgesia in mouse model of diabetic neuropathy: complete analgesia
[4]
  ABR threshold or latency versus untreated: no significant difference in ABR threshold or latency
[5]
  behavioural gap detection (GPIAS) after salicylate: restored
[6]
  Kp at 30 min: 0.12
